{"source": "patent US7820661B2", "about": "“Substituted gamma lactams as therapeutics agents” (Allergan, Inc., priority 2008, dated 2010)", "system": "lashes and adjacent hairs (hair growth)", "experiment": "Observation of lashes and adjacent hairs in glaucoma patients treated with bimatoprost in only one eye", "assay_type": "in vivo", "text": "In the course of treating patients having glaucoma, treatment may only be appropriate in one eye. […] The lash appearance on the lids of the treated eyes would have appeared quite attractive if it represented a bilateral phenomenon. As a result of its asymmetric nature, the long lashes on one side could be construed as disturbing from a cosmetic standpoint. A systemic examination was preformed as a result of the asymmetric phenomenon. It soon became apparent that this altered appearance was not an isolated finding.\nThe changes in the lashes were apparent on gross inspection in several patients once attention was focused on the issue. In those with light colored hair and lashes, the differences were only seen easily with the aid of the high magnification and lighting capabilities of the slit lamp biomicroscope. In the course of glaucoma follow-up examination, attention is generally immediately focused on the eye itself. As a result of the high power magnification needed only one eye is seen at a time and the eye is seen at a high enough power that the lashes are not in focus. At these higher powers, any lash asymmetry between the two eyes is not likely to be noticed except by careful systematic comparison of the lashes and adjacent hairs of the eyelids of the two eyes. […]", "data": [{"smiles": "CCNC(=O)CCC/C=C\\C[C@@H]1[C@@H](/C=C/[C@@H](O)CCc2ccccc2)[C@H](O)C[C@@H]1O", "note": "[bimatoprost]", "values": [{"measurement": "differences in the lashes and adjacent hairs of the treated side", "setting": "all patients taking the drug on a unilateral basis for longer than 6 months", "value": "Definite differences could be identified to varying degrees"}, {"measurement": "appearance of lashes in the treated eye compared with the non-treated eye", "setting": "glaucoma patient treated in one eye, treated vs non-treated eye", "value": "longer, thicker, and fuller"}]}]}
